# Results as given in patent publication US11918626B2, “Vasointestinal peptide receptor inhibitors for enhancement of gastrointestinal health” (New York University, priority 2019, dated 2024).
# T1: VIPR2 (Mus musculus, UniProt P41588)
# T1 construct: endogenous in cells; host or cells: primary CCR6+ ILC3 sorted from small-intestine lamina propria of C57BL/6 mice
# T1 sequence (P41588 23-437): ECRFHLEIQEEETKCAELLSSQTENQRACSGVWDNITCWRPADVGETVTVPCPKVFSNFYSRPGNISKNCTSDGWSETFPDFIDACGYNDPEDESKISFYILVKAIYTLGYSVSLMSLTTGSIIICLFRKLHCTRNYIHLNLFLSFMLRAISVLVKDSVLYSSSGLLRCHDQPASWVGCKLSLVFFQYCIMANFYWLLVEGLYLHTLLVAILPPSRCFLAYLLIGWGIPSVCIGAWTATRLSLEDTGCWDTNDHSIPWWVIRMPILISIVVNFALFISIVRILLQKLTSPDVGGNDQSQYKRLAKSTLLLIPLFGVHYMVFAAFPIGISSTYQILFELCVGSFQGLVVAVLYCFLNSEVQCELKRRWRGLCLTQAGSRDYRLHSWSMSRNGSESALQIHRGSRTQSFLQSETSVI
# T2: hM4Di (Homo sapiens, UniProt P08173, A203G/Y113C)
# T2 construct: host or cells: VIP-producing enteric neurons of Vip-IRES-Cre x hM4Di fl-stop-fl transgenic mice (in vivo)
# T2 sequence (P08173 1-479 Y113C/A203G): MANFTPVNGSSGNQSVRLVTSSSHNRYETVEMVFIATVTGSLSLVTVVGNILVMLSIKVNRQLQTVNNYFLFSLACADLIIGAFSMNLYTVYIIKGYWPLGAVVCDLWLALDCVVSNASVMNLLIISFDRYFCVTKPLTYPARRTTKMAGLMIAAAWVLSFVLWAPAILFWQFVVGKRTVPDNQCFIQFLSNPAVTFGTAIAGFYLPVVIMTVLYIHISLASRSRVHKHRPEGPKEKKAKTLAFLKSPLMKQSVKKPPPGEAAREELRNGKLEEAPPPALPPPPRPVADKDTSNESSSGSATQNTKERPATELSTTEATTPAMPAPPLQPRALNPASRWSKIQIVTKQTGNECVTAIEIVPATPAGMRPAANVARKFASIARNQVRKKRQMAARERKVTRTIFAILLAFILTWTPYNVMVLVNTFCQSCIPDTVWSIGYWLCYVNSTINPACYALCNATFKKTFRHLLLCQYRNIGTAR
# B1: rmIL-22: recombinant murine IL-22 (protein, UniProt Q9JJY9 34-179, looked up)
# Interleukin-22: LPVNTRCKLEVSNFQQPYIVNRTFMLAKEASLADNNTDVRLIGEKLFRGVSAKDQCYLMKQVLNFTLEDVLLPQSDRFQPYMQEVVPFLTKLSNQLSSCHISGDDQNIQKNVRRLKETVKKLGESGEIKAIGELDLLFMSLRNACV
# Key:
# VIPR2 = biological target: T1, VIPR2; assay: ILC3 in vitro cell culture with VIPR2 ligands, IL-22 and Sca-1 by flow cytometry; assay type: cell-based, mice; conditions: IL-23 100 pg/mL, 12 h, different concentrations of ligand
# Method: CCR6^+ and CCR6^neg ILC3 (DAPI^negCD3^negCD11c^negCD14^negCD19^negTCRβ^negTCRγ^negNK1.19KLRG1^negCD127^+CD90.2^+) were isolated from small intestine LPLs of C57BL/6 mice using the ARIA II FACS Sorter (BD Biosciences). ILC3 were cultured at 37° C. in flat bottom 96 well plates (10^4 cells/well) in RPMI supplemented with 10% heat-inactivated FBS (Hyclone), 50 U penicillin-streptomycin (Hyclone), 2 mM glutamine (Hyclone), 10 mM HEPES (Hyclone), 1 mM sodium pyruvate (Hyclone) and 50 μM β-mercaptoethanol (Gibco). ILC3 were stimulated with IL-23 (100 pg/mL, R&D systems) and/or VIPR2 ligands (BAY-559837: 1-100 nM, and VIP: 1 nM, […]), washed, incubated in complete media in the presence of Golgi Plug (BD Bioscience) for 4 h (37° C.), and stained for membrane extracellular markers in Staining Buffer (PBS FBS2% EDTA 5 mM) and for intracellular markers using Cytofix/Cytoperm buffer set following manufacturer's protocol (BD Biosciences). Acquisition of cytometric parameters was performed on an LSRII (BD Biosciences). All data were analyzed using FlowJo Software Version 10 (Tree Star).
# (§1) Live/dead fixable blue (ThermoFisher) or DAPI (ThermoFisher) were used to exclude dead cells. […] Flow cytometric analysis was performed on an LSR II (BD Biosciences) or an Aria II (BD Biosciences) and analyzed using FlowJo software version 10 (Tree Star).
# ILC3 = assay: Pilot experiments with CNO in C57BL/6 mice; assay type: in vivo; conditions: 1 mg/Kg intraperitoneally each 12 h, C57BL/6 mice without DREADD, data not shown
# hM3Dq = biological target: T3, hM3Dq (Homo sapiens, UniProt P20309, A239G/Y149C); assay: VIPen activation with activating DREADD (hM3Dq), 24 h; assay type: in vivo, mice; conditions: following VIPen activation, versus vehicle
# T3 construct: host or cells: VIP-producing enteric neurons of Vip-IRES-Cre x hM3Dq fl-stop-fl transgenic mice (in vivo)
# Method: (§2) To perform chemogenetic activation or inhibition of VIPen, we bred VIP^IRES-Cre homozygous mice to hM3Dq^fl-stop-fl mice (DREADD for activation) or hM4Di^fl-stop-fl bp-mice (DREADD for inhibition), generating VIP^IRES-Cre hM3Dq^fl-stop-fl (VIPen activation) and VIP^IRES-Cre hM3Dq^fl-stop-flhM4Di^fl-stop-fl mice (VIPen inhibition). To perform 24 h activation of the DREADDs, mice were treated with Clozapine-N-Oxide (CNO, 1 mg/Kg intraperitoneally, TOCRIS) each 12 h. […] To perform activation of the DREADDs during Citrobacter rodentium infection, mice were treated daily with CNO (1 mg/Kg, intraperitoneally) from day 1 to day 4 after infection. […]
# as §1
# (§3) TRNA isolation of ileal epithelial cells was performed using TRIzol following manufacturer's instructions (Invitrogen) followed by DNase I (Qiagen) treatment and cleanup with RNeasy MinElute kit (Qiagen) following manufacturer protocols. cDNA was generated using SuperScript™ IV First-Strand Synthesis System (ThermoFisher). […] Quantitative PCR was performed using the Hot Start-IT SYBRGreen (Affymetrix) on the Roche real-time PCR system (Roche 480). […]
# hM4Di = biological target: T2, hM4Di; assay: VIPen inhibition with inhibitory DREADD (hM4Di), 24 h; assay type: in vivo, mice; conditions: versus vehicle
# Method: as §2, §1, §3
# C. rodentium [1] = assay: C. rodentium infection of Vip-IRES-Cre hM3Dq mice (VIPen activation); assay type: in vivo, Citrobacter rodentium; conditions: for bacterial dissemination (translocation) induced by VIPen activation / mortality induced by VIPen activation: 250 pg/mouse/day, C. rodentium-infected hM3Dq mice with VIPen activation
# Method: (§4) To perform chemogenetic activation or inhibition of VIPen, we bred VIP^IRES-Cre homozygous mice to hM3Dq^fl-stop-fl mice (DREADD for activation) or hM4Di^fl-stop-fl bp-mice (DREADD for inhibition), generating VIP^IRES-Cre hM3Dq^fl-stop-fl (VIPen activation) and VIP^IRES-Cre hM3Dq^fl-stop-flhM4Di^fl-stop-fl mice (VIPen inhibition). To perform 24 h activation of the DREADDs, mice were treated with Clozapine-N-Oxide (CNO, 1 mg/Kg intraperitoneally, TOCRIS) each 12 h. […] To perform activation of the DREADDs during Citrobacter rodentium infection, mice were treated daily with CNO (1 mg/Kg, intraperitoneally) from day 1 to day 4 after infection.
# (§5) C. rodentium strain DBS100 (ATCC51459; American Type Culture Collection) was grown at 37° C. in LB broth to OD600 reading between 0.5 and 0.7. VIP^IRES-CrehM3Dq^fl-stop-fl (VIPen activation) and C57BL/6 mice were inoculated with 200 μl of a bacterial suspension (2×10^9 CFU) by oral gavage. VIP^IRES-Cre hM3Dq^fl-stop-flhM4Di^fl-stop-fl mice (VIPen inhibition) were inoculated with 200 μl of a bacterial suspension (4×10^10 CFU) by oral gavage. For DREADD experiments, CNO treatment started at 1 day post-infection (d.p.i.) until 4 d.p.i. Mice were followed the next 12 days post-infection (d.p.i.) to measure survival rate. At 9 d.p.i. fecal pellets were collected and the mice dissected to harvest spleen and liver. Samples were weighted and minced on sterile deionized water with Triton 0.1% and filtered on a 70 μm cell strainer. The filtered samples were used to measure C. rodentium burden with serial dilutions (triplicates) on MacConkey agar plates.
# C. rodentium [2] = assay: C. rodentium infection of Vip-IRES-Cre hM4Di mice (VIPen inhibition); assay type: in vivo, Citrobacter rodentium; conditions: 1 mg/Kg daily 1-4 d.p.i., 4×10^10 CFU, 9 d.p.i., mice positive/total
# Method: as §4
# as §5, with “Samples were weighted and minced on sterile deionized water with Triton 0.1% and filtered on a 70 μm cell strainer. The filtered samples were used to measure C. rodentium burden with serial dilutions (triplicates) on MacConkey agar plates.” left out
# [3] = 1 mg/Kg daily 1-4 d.p.i., 2×10^9 CFU, 9 d.p.i., mice positive/total
# [4] = listed as recombinant murine IL-22
# T3 sequence (P20309 whole entry Y149C/A239G): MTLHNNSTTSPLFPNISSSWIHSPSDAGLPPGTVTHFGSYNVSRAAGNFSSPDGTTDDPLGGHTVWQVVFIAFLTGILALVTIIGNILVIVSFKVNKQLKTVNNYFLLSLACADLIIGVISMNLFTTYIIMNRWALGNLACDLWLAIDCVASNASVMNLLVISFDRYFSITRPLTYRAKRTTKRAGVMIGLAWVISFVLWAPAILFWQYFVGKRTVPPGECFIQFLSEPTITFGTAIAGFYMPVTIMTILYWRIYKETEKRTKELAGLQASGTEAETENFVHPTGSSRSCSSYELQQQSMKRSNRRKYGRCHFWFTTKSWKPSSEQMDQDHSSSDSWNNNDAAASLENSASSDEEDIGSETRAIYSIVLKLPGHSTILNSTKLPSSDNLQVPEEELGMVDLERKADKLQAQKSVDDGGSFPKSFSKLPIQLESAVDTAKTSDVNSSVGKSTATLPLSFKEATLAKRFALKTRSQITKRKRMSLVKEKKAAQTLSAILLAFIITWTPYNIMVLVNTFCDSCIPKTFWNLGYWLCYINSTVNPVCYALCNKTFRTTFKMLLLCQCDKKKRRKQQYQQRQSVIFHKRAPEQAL
molecule,measurement,setting,value
vasoactive intestinal peptide [VIP],IL-23-induced Sca-1 expression on CCR6+ ILC3,VIPR2,does not modulate
"C[N+]1([O-])CCN(C2=Nc3cc(Cl)ccc3Nc3ccccc32)CC1 [CNO, Clozapine-N-oxide]",ILC3 function,ILC3,does not affect
same,IL-22+ cells among the CCR6+ ILC3,hM3Dq,fewer
same,RegIIIγ mRNA in IECs,hM3Dq,lower
same,RegIIIγ mRNA expression in the IECs,"hM4Di; after VIPen inhibition, 24 h",increased
same,frequency of IL-22-producing CCR6+ ILC3,"hM4Di; ileum, 24 h following VIPen inhibition",higher frequency
same,Positive for C. rodentium: liver,C. rodentium [1]; [3],9/9
same,Positive for C. rodentium: spleen,C. rodentium [1]; [3],9/9
same,Positive for C. rodentium: liver,C. rodentium [2],1/7
same,Positive for C. rodentium: spleen,C. rodentium [2],1/7
B1,bacterial dissemination (translocation) induced by VIPen activation,C. rodentium [1],protects against increase
same,mortality induced by VIPen activation,C. rodentium [1],protects against increase
same,bacterial dissemination (translocation) induced by VIPen activation,C. rodentium [1]; [4],reversed the effect
same,mortality induced by VIPen activation,C. rodentium [1]; [4],reversed the effect
